This is an account of results in patent US8759579B2, “Cyclobutyl sulfones as notch sparing gamma secretase inhibitors” (Merck Sharp & Dohme Corp., priority 2008, dated 2014).

Common to all, as to type: cell-based
Data set [1] addresses T1, pregnane X receptor (PXR) (Homo sapiens, UniProt O75469).
T1 construct: expressed in transfected cells; host or cells: HEP G2
T1 sequence (O75469 1-434): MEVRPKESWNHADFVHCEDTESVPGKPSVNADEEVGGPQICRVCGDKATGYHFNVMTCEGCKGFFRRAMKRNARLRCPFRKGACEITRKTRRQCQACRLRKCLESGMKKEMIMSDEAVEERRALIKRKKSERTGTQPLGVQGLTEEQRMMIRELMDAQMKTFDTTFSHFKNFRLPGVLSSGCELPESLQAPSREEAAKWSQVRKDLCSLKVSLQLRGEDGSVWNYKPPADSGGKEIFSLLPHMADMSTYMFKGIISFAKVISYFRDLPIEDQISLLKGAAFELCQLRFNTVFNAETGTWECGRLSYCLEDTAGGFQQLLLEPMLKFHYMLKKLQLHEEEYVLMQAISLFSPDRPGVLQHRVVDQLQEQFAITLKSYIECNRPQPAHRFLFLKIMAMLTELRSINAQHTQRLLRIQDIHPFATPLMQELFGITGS
T1 sequence (P19793 1-462 partner): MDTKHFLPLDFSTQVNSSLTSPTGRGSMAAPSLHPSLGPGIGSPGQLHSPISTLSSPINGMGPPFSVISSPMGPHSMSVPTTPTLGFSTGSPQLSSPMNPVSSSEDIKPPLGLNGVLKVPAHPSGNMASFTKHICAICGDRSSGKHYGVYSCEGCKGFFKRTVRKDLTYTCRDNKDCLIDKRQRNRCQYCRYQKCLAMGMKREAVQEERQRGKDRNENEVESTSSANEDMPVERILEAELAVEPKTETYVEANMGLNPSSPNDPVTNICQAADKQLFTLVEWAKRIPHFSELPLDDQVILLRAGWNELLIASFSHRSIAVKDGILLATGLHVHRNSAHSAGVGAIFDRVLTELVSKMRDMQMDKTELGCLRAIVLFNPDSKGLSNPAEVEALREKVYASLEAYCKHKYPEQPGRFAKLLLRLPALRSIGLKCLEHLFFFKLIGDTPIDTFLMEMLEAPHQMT
Kind of data set: PXR assay (CYP3A4-SEAP transactivation assay, PCSTA). The note with it: for EC50: HEP G2 cells. An excerpt: The CYP3A4-SEAP transactivation assay (PCSTA) effectively and rapidly evaluates compounds for their potential to induce cytochrome P450 CYP3A (human CYP3A4 or rat CYP3A1). The reporter construct contains regulatory regions from the CYP3A4 gene positioned just upstream of a secreted alkaline phosphatase (SEAP) gene. The human PXR nuclear receptor has been modified at the 5′-end so that methionine is the initiating amino acid replacing leucine found in the wild-type sequence. HEP G2 cells are transfected with the PXR plasmid (human or rat) and the reporter plasmid. Read-out for the induction of CYP3A4 consists of a SEAP calorimetric assay with para-nitro-phenyl phosphate (pNPP) as the substrate. Five point dose-response curves in duplicate are then generated with each point corresponding to the rate of conversion of pNPP to pNP by SEAP. For the human PCSTA, rifampicin is used as the positive control and 100% induction is based upon the maximum induction produced by rifampicin at 10 μM.

The subject of data set [2] is gamma secretase-dependent cleavage of the Notch protein (NotchΔE) in HeLa cells. Nature of the data set: Notch processing split-luciferase assay (Notch intracellular domain release). The text has this: Notch Processing: (Assay Quantitates Notch Intracellular Domain Release in Cell Lines):
A “split-luciferase” assay is used to measure inhibition of gamma secretase-dependent cleavage of the Notch protein. In this assay, HeLa cells were made to express a Notch protein lacking its extracellular domain (NotchΔE) fused to an N-terminal fragment of luciferase. The same cells also expressed a C-terminal fragment of luciferase fused to the immunoglobulin J kappa recombination signal sequence binding protein (RBP). Upon NotchΔE cleavage by gamma secretase, a Notch intracellular domain (NICD)-N terminal luciferase protein is generated which translocates to the nucleus and binds the RBP-C terminal luciferase fusion, bringing two independently nonfunctional halves of luciferase together to form a functional luciferase enzyme. The activity of luciferase in these cells is directly proportional to the amount of gamma secretase-cleaved Notch. Luciferase activity is determined by the standard techniques of luciferin addition to lysed cells and measurement of total luminescence.

Data set [3] has as its system Aβ42 peptides generated from SH-SY5Y cells expressing amyloid β protein (SP4CT cells). Nature of the data set: APP processing AlphaLisa assay, secreted Aβ42. Conditions: average of at least >4 replicates, read-out: AB42 IC50 AVG. Here is the method:
(§1) APP Processing (Assay Quantitates Secreted Aβ Analytes from Cell Lines):
(§2) The effect of compounds on the abundance of Aβ40 and Aβ42 peptides generated from SH-SY5Y cells expressing amyloid β protein (SP4CT cells) was determined by an AlphaLisa™ assay. Analogous to an ELISA assay, generation of signal in this AlphaLisa™ assay requires “donor” and “acceptor” beads to be brought in close proximity by specific antibody recognition of either Aβ40 or Aβ42 peptides. The assay was accomplished by removing media from compound-treated SP4CT cells to two different microplates, followed by the addition of donor beads conjugated with streptavidin binding a biotinylated anti-amyloid β monoclonal antibody (clone 4G8). Acceptor beads directly conjugated with anti-Aβ40 monoclonal antibody (G210) were added to one microplate and anti-Aβ42 monoclonal antibody (12F4) acceptor beads were added to the other. Abundance of Aβ40 and Aβ42 was directly proportional to the luminescent signal generated following excitation of donor beads by laser light.
On the technique in general: Bead proximity is the source of the signal in Alpha formats.

Data set [4] relates to Aβ40 peptides generated from SH-SY5Y cells expressing amyloid β protein (SP4CT cells). Nature of the data set: APP processing AlphaLisa assay, secreted Aβ40. Conditions: average of at least >4 replicates, read-out: AB40 IC50 AVG. Here is the method:
as §1, §2

Setting [5] is: Homo sapiens, HeLa, average of at least >4 replicates, read-out: Notch IC50 AVG.

Each structure is given as a SMILES string. Like-named read-outs stand apart in the source and are kept apart here.

As a reminder, the EC50 is the concentration giving half of the maximal effect. Higher therefore signals a need for much substance. As usually defined, the IC50 is the concentration at which inhibition is half-maximal.

As to `O=S(=O)(NC1CC(c2cc(Cl)ccc2F)(S(=O)(=O)c2ccc(Cl)cc2)C1)C(F)(F)F` (stereo not drawn) [Example 6, N-{cis-3-(5-chloro-2-fluorophenyl)-3-[(4-chlorophenyl)sulfonyl]cyclobutyl}-1,1,1-trifluoromethanesulfonamide], the “PXR % Activation @ 10 uM” value in data set [1] was 79.2%. In addition, in data set [1], the concentration giving a half-maximal response (EC50) came to 1990 nM. Besides, the IC50 in data set [2] (setting [5]) is 5.65 µM; in data set [3] (Homo sapiens, SH-SY5Y), 106 nM; in data set [4] (Homo sapiens, SH-SY5Y), 130 nM.
The matching figures for `O=S(=O)(N[C@H]1C[C@@](c2cc(Cl)ccc2Cl)(S(=O)(=O)c2ccc(Cl)cc2)C1)C(F)(F)F` [Example 4, N-[cis-3-[(4-chlorophenyl)sulfonyl]-3-(2,5-dichlorophenyl)cyclobutyl]-1,1,1-trifluoromethanesulfonamide]: 70.7%, 1960 nM, 1.94 µM, 78.2 nM and 70.8 nM.
Consider `O=S(=O)(N[C@H]1C[C@](c2cc(F)ccc2F)(S(=O)(=O)c2ccc(Cl)cc2)C1)C(F)(F)F` [Example 1, N-[trans-3-[(4-chlorophenyl)sulfonyl]-3-(2,5-difluorophenyl)cyclobutyl]-1,1,1-trifluoromethanesulfonamide], for which the EC50 in data set [1] came to 1220 nM. The IC50 in data set [2] (setting [5]) turned out to be 50 µM; in data set [3] (Homo sapiens, SH-SY5Y) it was 117 nM; in data set [4] (Homo sapiens, SH-SY5Y) it was 151 nM.
`CN(C1CC(c2cc(F)ccc2F)(S(=O)(=O)c2ccc(Cl)cc2)C1)S(=O)(=O)C(F)(F)F` (stereo not drawn) [Example 14, N-[3-[(4-chlorophenyl)sulfonyl]-3-(2,5-difluorophenyl)cyclobutyl]-1,1,1-trifluoro-N-methylmethanesulfonamide] displayed an EC50 in data set [1] of 829 nM. The IC50 stood at 9.87 µM in data set [2] (average of at least >4 replicates, read-out: Notch IC50 AVG); 97.1 nM in data set [3]; 89.9 nM in data set [4].
With `O=C(O)CCCN([C@H]1C[C@@](c2cc(F)ccc2F)(S(=O)(=O)c2ccc(Cl)cc2)C1)S(=O)(=O)C(F)(F)F` [Example 10, 4-{[cis-3-[(4-chlorophenyl)sulfonyl]-3-(2,5-difluorophenyl)cyclobutyl][(trifluoromethyl)sulfonyl]amino}butanoic acid], the “PXR % Activation @ 10 uM” value in data set [1] was found to be 76.7%. It took 1240 nM to reach a half-maximal effect in data set [1] (EC50). The IC50 worked out at 8.31 µM in data set [2] (setting [5]); 30.7 nM in data set [3] (Homo sapiens, SH-SY5Y); 35.2 nM in data set [4] (Homo sapiens, SH-SY5Y).
Take `N#Cc1ccc(S(=O)(=O)C2(c3cc(F)ccc3F)CC(NS(=O)(=O)C(F)(F)F)C2)cc1` (stereo not drawn) [Example 9, N-[cis-3-[(4-cyanophenyl)sulfonyl]-3-(2,5-difluorophenyl)cyclobutyl]-1,1,1-trifluoromethanesulfonamide]: in data set [1], the “PXR % Activation @ 10 uM” value was 54.9%. The EC50 in data set [1] worked out at 8360 nM. The IC50 in data set [2] (setting [5]) was 8.9 µM; in data set [3] (Homo sapiens, SH-SY5Y), 231 nM; in data set [4] (Homo sapiens, SH-SY5Y), 260 nM.
Turning to `N#Cc1ccc(F)cc1[C@]1(S(=O)(=O)c2ccc(Cl)cc2)C[C@@H](NS(=O)(=O)C(F)(F)F)C1` [Example 3, N-[cis-3-[(4-chlorophenyl)sulfonyl]-3-(2-cyano-5-fluorophenyl)cyclobutyl]-1,1,1-trifluoromethanesulfonamide], in data set [1], the “PXR % Activation @ 10 uM” value is listed as 92.3%. This molecule showed an EC50 in data set [1] of 714 nM. Besides, the IC50 was 3.21 µM in data set [2] (setting [5]); 66.1 nM in data set [3] (Homo sapiens, SH-SY5Y); 70.1 nM in data set [4] (Homo sapiens, SH-SY5Y).
Consider `COC(=O)CN([C@H]1C[C@@](c2cc(F)ccc2F)(S(=O)(=O)c2ccc(Cl)cc2)C1)S(=O)(=O)C(F)(F)F` [Example 12, Methyl {[cis-3-[(4-chlorophenyl)sulfonyl]-3-(2,5-difluorophenyl)cyclobutyl][(trifluoromethyl)sulfonyl]amino}acetate], for which a half-maximal response in data set [1] (EC50) required 1600 nM. Further, the IC50 came to 13.2 µM in data set [2] (setting [5]); 117 nM in data set [3] (Homo sapiens, SH-SY5Y); 97.7 nM in data set [4] (Homo sapiens, SH-SY5Y).
On to `O=S(=O)([N-][C@H]1C[C@@](c2cc(F)ccc2F)(S(=O)(=O)c2ccc(Cl)cc2)C1)C(F)(F)F.[Na+]` [Example 20, Sodium [cis-3-[(4-chlorophenyl)sulfonyl]-3-(2,5-difluorophenyl)cyclobutyl][(trifluoromethyl)sulfonyl]azanide], for which the “PXR % Activation @ 10 uM” value in data set [1] amounted to 71.9%. In data set [1], this molecule came in with a concentration for a half-maximal effect (EC50) of 2890 nM. For the same molecule, the IC50 in data set [2] (read-out: Notch IC50 AVG, average of at least >4 replicates) was found to be 1.77 µM; in data set [3], 53.2 nM; in data set [4], 61.2 nM.
On to `C[C@]1(NS(=O)(=O)C(F)(F)F)C[C@@](c2cc(F)ccc2F)(S(=O)(=O)c2ccc(Cl)cc2)C1` [Example 17, N-[cis-3-[(4-chlorophenyl)sulfonyl]-3-(2,5-difluorophenyl)-1-methylcyclobutyl]-1,1,1-trifluoromethanesulfonamide], for which the “PXR % Activation @ 10 uM” value in data set [1] is recorded as 74.6%. Also, the EC50 in data set [1] stood at 848 nM. In addition, the half-maximal inhibitory concentration (IC50) in data set [2] (setting [5]) is 5.21 µM; in data set [3] (Homo sapiens, SH-SY5Y), 37 nM; in data set [4] (Homo sapiens, SH-SY5Y) it was 37.3 nM.
The matching figures for `O=S(=O)(N([C@H]1C[C@@](c2cc(F)ccc2F)(S(=O)(=O)c2ccc(Cl)cc2)C1)S(=O)(=O)C(F)(F)F)C(F)(F)F` [Example 19, N-[cis-3-[(4-chlorophenyl)sulfonyl]-3-(2,5-difluorophenyl)cyclobutyl]-1,1,1-trifluoro-N-[(trifluoromethyl)sulfonyl]methanesulfonamide]: 89.1%, 1250 nM, 5.68 µM, 48.7 nM and 62.6 nM.
In the same order, the values of `O=S(=O)(NC1CC(c2cc(F)ccc2F)(S(=O)(=O)c2ccc(C(F)(F)F)cc2)C1)C(F)(F)F` (stereo not drawn) [Example 5, N-(cis-3-(2,5-difluorophenyl)-3-{[4-(trifluoromethyl)phenyl]sulfonyl}cyclobutyl)-1,1,1-trifluoromethanesulfonamide] are 64.4%, 5200 nM, 3.81 µM, 90.2 nM and 100 nM.
